Key:
recombinant CETP = target: T1, recombinant CETP (Homo sapiens, UniProt P11597); test: RTA assay using recombinant CETP (2% RTA); assay type: biochemical; conditions: 2% human serum
T1 sequence (P11597 18-493): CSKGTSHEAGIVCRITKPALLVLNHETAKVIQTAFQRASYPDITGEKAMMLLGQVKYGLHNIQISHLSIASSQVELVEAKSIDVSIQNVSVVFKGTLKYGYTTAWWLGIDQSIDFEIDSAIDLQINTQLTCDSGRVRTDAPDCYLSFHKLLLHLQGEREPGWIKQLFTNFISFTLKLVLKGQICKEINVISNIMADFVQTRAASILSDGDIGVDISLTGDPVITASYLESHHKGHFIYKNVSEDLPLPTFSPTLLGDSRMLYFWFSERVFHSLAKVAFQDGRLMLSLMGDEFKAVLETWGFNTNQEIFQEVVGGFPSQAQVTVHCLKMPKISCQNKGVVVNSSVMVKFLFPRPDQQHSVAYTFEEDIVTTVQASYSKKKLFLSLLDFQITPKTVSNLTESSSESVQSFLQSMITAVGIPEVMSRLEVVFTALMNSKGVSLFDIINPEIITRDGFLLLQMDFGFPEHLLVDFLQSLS
Procedure: (§1) In Vitro Radioactive Assays of CETP-Catalyzed CE and TG Transfer (RTA Assay)
(§2) Reagents and sources are: [3H] cholesteryl oleate (GE #TRK.886), [3H] Triolein (Perkin-Elmer NET-431), Butylated hydroxyl toluene (Aldrich, #D4740-4), DOPC (Sigma, #P6354), Sodium Bromide (Fisher scientific #S255-500), PEG 8000 (Fisher, #BP233-1), and human HDL (Intracel Corp #RP-036).
(§3) An in vitro assay for determining IC50's to identify compounds that inhibit CETP transfer activity is performed based on a modification of a published method (Morton and Zilversmit, (1981) A plasma inhibitor of triglyceride and cholesteryl ester transfer activities, J. Biol. Chem. 256(23), 11992-11995). The ability of inhibitors to alter CETP activity is performed using two different assays: one using recombinant CETP and one using an endogenous plasma source of CETP. Both assays measure the transfer of [3H] cholesteryl oleate or [3H] triolein from exogenous LDL to HDL.
(§4) Radiolabeled donor particles are generated by first combining 100 μl of 200 μM butylated hydroxyl toluene in CHCl3, 216 μL of 21.57 mM DOPC in EtOH, and either 500 μCi [3H]-triolein (Perkin Elmer #NET-431) or 500 μCi [3H]-cholesteryl oleate (GE #TRK886) in a glass tube. Reagents are mixed, dried under nitrogen, and then resuspended in 2 mL of 50 mM Tris, 27 μM EDTA at pH 7.4. After a brief vortex, the solution is sonicated until clear and mixed with 20 mL of fresh human serum. The mixture is incubated overnight at 37° C. The [3H] labeled LDL substrate is separated at 1.063 g/ml density by sequential ultracentrifugal flotation in NaBr according to the method of Havel, Eder, et al., 1955, and Chapman, Goldstein, et al., 1981. Once isolated the particles are dialyzed 3× in CETP buffer (50 mM Tris, pH 7.4, 100 mM NaCl, 1 mM EDTA). Human HDL is purchased from Intracel and used as the acceptor particles.
(§5) Transfer assays are performed in a 96-well v-bottom polypropylene plate. For the RTA using recombinant CETP (2% RTA), an assay cocktail is prepared with the final concentrations 128 μg/mL HDL, 20 nM rCETP, 2% human serum, and 1×CETP buffer. 1 μL of each test compound diluted in DMSO is added to 47 μL of assay cocktail per well and incubated at 37° C. for 1 hour. To initiate the transfer reaction, 2 μL radiolabeled LDL is added. After an additional 60 min of incubation at 37° C., the transfer action is terminated by precipitation of LDL with an equal volume of 20% W/V PEG 8000. The plates are centrifuged at 2000 rpm for 30 minutes at 4° C. A 40 μL aliquot of the HDL-containing supernatant is transferred to a Packard Optiplate™ with 200 μL of MicroScint™ 20. After mixing, plates are counted by liquid scintillation. Counts present in the supernatant for blanks (wells containing only HDL acceptor, CETP buffer and DMSO) are subtracted from those containing test compounds and used to correct for non-specific transfer.
(§6) Comparison of the counts of samples with inhibitors to an uninhibited (DMSO only) positive control yield a percent inhibition. A plot of percent inhibition vs. log of inhibitor concentration, fit to a Sigmoidal 4 parameter equation is used to calculate IC50.

[1] = target: T2, endogenous CETP from human serum (Homo sapiens, UniProt P11597); test: RTA assay using endogenous CETP from serum (95% RTA); assay type: biochemical; conditions: 95% human serum
T2 construct: yielding a concentration of approximately 15 nM endogenous CETP in the assay; from tissue; host or cells: human serum
T2 sequence (P11597 18-493): T1 sequence (P11597 18-493)
Procedure: as §1, §2, §3, §4, §5
For the transfer assay using endogenous CETP from serum (95% RTA), the same procedure is used except that human serum is added such that a final concentration of serum of 95% of the total assay volume is achieved, yielding a concentration of approximately 15 nM endogenous CETP in the assay. This is then combined with HDL and CETP buffer and the reaction proceeds as above and is terminated as described.
as §6

[2] = Phase III outcomes trial, cited from earlier work
[3] = cited from earlier work
[4] = patients on baseline statin therapy, compared with patients treated with just a statin

Structure (SMILES): O[C@H](CN1CC(Cc2cccc(N3CCC(F)(F)C3)c2)(c2cccc(OC(F)(F)F)c2)c2ccccc21)C(F)(F)F (stereo partly shown) [Example 54]
- IC50 (recombinant CETP): 510 nM
- IC50 [1]: 3650 nM

Structure (SMILES): CCOc1cc(C2(Cc3cccc(OC(F)(F)F)c3)CN(C[C@@H](O)C(F)(F)F)c3ccccc32)ccn1 (stereo partly shown) [Example 21]
- IC50 (recombinant CETP): 60 nM
- IC50 [1]: 283 nM

Structure (SMILES): Cc1cccc2c1N(C[C@@H](O)C(F)(F)F)CC2(Cc1cccc(OC(F)(F)F)c1)c1cccc(OC(F)(F)F)c1 (stereo partly shown) [Example 11]
- IC50 (recombinant CETP): 155 nM
- IC50 [1]: 491 nM

Structure (SMILES): CCC(CC)CC1(C(=O)Nc2ccccc2SC(=O)C(C)C)CCCCC1 [dalcetrapib]
- clinical benefit (interim data) ([2]; terminated early): did not show a clinical benefit
- safety issues [2]: no safety issues detected

Structure (SMILES): O[C@H](CN1CC(Cc2cccc(N3CC(F)C3)c2)(c2cccc(OC(F)(F)F)c2)c2ccccc21)C(F)(F)F (stereo partly shown) [Example 52]
- IC50 (recombinant CETP): 447 nM
- IC50 [1]: 5840 nM

Structure (SMILES): COc1cccc(-c2cccc(C3(Cc4cccc(OC(F)(F)F)c4)CN(C[C@@H](O)C(F)(F)F)c4ccccc43)c2)c1 (mixture of isomers) [Example 25, (2R)-1,1,1-trifluoro-3-(3-(3′-methoxy-[1,1′-biphenyl]-3-yl)-3-(3-(trifluoromethoxy)benzyl)indolin-1-yl)propan-2-ol]
- IC50 (recombinant CETP): 1470 nM
- IC50 [1]: 3130 nM

Structure (SMILES): O[C@H](CN1CC(Cc2ccccc2OC(F)(F)F)(c2cccc(OC(F)(F)F)c2)c2ccccc21)C(F)(F)F (stereo partly shown) [Example 9]
- IC50 (recombinant CETP): 1210 nM
- IC50 [1]: 3370 nM

Structure (SMILES): O[C@H](CN1CC(Cc2cccc(OC(F)(F)F)c2)(c2ccc(F)c(C(F)(F)F)c2)c2ccccc21)C(F)(F)F (stereo partly shown) [Example 14]
- IC50 (recombinant CETP): 277 nM
- IC50 [1]: 685 nM

Structure (SMILES): O[C@H](CN1CC(Cc2cccc(N3CCC(F)(F)CC3)c2)(c2cccc(OC(F)(F)F)c2)c2ccccc21)C(F)(F)F (stereo partly shown) [Example 56]
- IC50 (recombinant CETP): 413 nM
- IC50 [1]: 6940 nM

Structure (SMILES): COc1ccc(CC2(c3cccc(OC(F)(F)F)c3)CN(C[C@@H](O)C(F)(F)F)c3ccccc32)cc1 (stereo partly shown) [Example 5]
- IC50 (recombinant CETP): 2150 nM
- IC50 [1]: 9680 nM

Structure (SMILES): O[C@H](CN1CC(Cc2cccc(N3CC[C@@H](F)C3)c2)(c2cccc(OC(F)(F)F)c2)c2ccccc21)C(F)(F)F (stereo partly shown) [Example 58]
- IC50 (recombinant CETP): 171 nM
- IC50 [1]: 1410 nM

Structure (SMILES): O[C@H](CN1CC(Cc2cccc(OC(F)(F)F)c2)(c2cccc(OC(F)(F)C(F)F)c2)c2ccccc21)C(F)(F)F (stereo partly shown) [Example 8]
- IC50 (recombinant CETP): 25 nM
- IC50 [1]: 94 nM

Structure (SMILES): O[C@H](CN1CC(Cc2cccc(OC(F)(F)F)c2)(c2cccc(C(F)(F)F)c2)c2ccccc21)C(F)(F)F (mixture of isomers) [Example 1, (2R)-1,1,1-trifluoro-3-(3-(3-(trifluoromethoxy)benzyl)-3-(3-(trifluoromethyl)-phenyl)indolin-1-yl)propan-2-ol]
- IC50 (recombinant CETP): 28 nM
- IC50 [1]: 1220 nM

Structure (SMILES): CC1(O)CN(c2cccc(CC3(c4cccc(OC(F)(F)F)c4)CN(C[C@@H](O)C(F)(F)F)c4ccccc43)c2)C1 (stereo partly shown) [Example 53]
- IC50 (recombinant CETP): 680 nM
- IC50 [1]: 8050 nM

Structure (SMILES): COc1cc(F)c(C(C)C)cc1-c1ccc(C(F)(F)F)cc1CN1C(=O)O[C@H](c2cc(C(F)(F)F)cc(C(F)(F)F)c2)[C@@H]1C [anacetrapib]
- decrease of LDL-C [3, 4]: 40%
- increase of HDL-C [3, 4]: 138%
- increase in mortality ([3]; patients treated with anacetrapib, DEFINE trial): unlikely

Structure (SMILES): OC1CCN(c2cccc(C3(Cc4cccc(OC(F)(F)F)c4)CN(C[C@@H](O)C(F)(F)F)c4ccccc43)c2)C1 (stereo partly shown) [Example 44]
- IC50 (recombinant CETP): 489 nM
- IC50 [1]: 2040 nM

Structure (SMILES): C[C@H]1CN(c2cccc(CC3(c4cccc(OC(F)(F)F)c4)CN(C[C@@H](O)C(F)(F)F)c4ccccc43)c2)CCO1 (stereo partly shown) [Example 50]
- IC50 (recombinant CETP): 474 nM
- IC50 [1]: 4930 nM

Structure (SMILES): C[C@H]1CN(c2cccc(C3(Cc4cccc(OC(F)(F)F)c4)CN(C[C@@H](O)C(F)(F)F)c4ccccc43)c2)CCO1 (stereo partly shown) [Example 38]
- IC50 (recombinant CETP): 117 nM
- IC50 [1]: 674 nM

Structure (SMILES): COC(=O)c1cccc(CC2(c3cccc(OC(F)(F)F)c3)CN(C[C@@H](O)C(F)(F)F)c3ccccc32)c1 (stereo partly drawn) [Example 60, Methyl 3-((1-((R)-3,3,3-trifluoro-2-hydroxypropyl)-3-(3-(trifluoromethoxy)phenyl)indolin-3-yl)methyl)benzoate]
- IC50 (recombinant CETP): 668 nM
- IC50 [1]: 937 nM

Structure (SMILES): O[C@H](CN1CC(Cc2cccc(OC(F)(F)F)c2)(c2cccc(N3CC[C@H](F)C3)c2)c2ccccc21)C(F)(F)F (stereo partly shown) [Example 41]
- IC50 (recombinant CETP): 72 nM
- IC50 [1]: 498 nM

Structure (SMILES): O[C@H](CN1CC(Cc2ccccc2)(c2cccc(OC(F)(F)F)c2)c2ccccc21)C(F)(F)F (stereo partly shown) [Example 2]
- IC50 (recombinant CETP): 238 nM
- IC50 [1]: 746 nM

Structure (SMILES): Cc1csc(CC2(c3cccc(OC(F)(F)F)c3)CN(C[C@@H](O)C(F)(F)F)c3c(F)cccc32)n1 (stereo partly shown) [Example 16]
- IC50 (recombinant CETP): 296 nM
- IC50 [1]: 2000 nM

Structure (SMILES): O[C@H](CN1CC(Cc2cccc(OC(F)(F)F)c2)(c2cccc(N3CCC(F)(F)CC3)c2)c2ccccc21)C(F)(F)F (stereo partly shown) [Example 39]
- IC50 (recombinant CETP): 164 nM
- IC50 [1]: 1080 nM

Structure (SMILES): O[C@H](CN1CC(Cc2cccc(OC(F)(F)F)c2)(c2ccnc(C(F)(F)F)c2)c2ccccc21)C(F)(F)F (stereo partly shown) [Example 20]
- IC50 (recombinant CETP): 447 nM
- IC50 [1]: 2600 nM

Structure (SMILES): O[C@H](CN1CC(Cc2cccc(OC(F)(F)F)c2)(c2cccc(Cl)c2)c2ccccc21)C(F)(F)F (mixture of isomers) [Example 4, (2R)-3-(3-(3-chlorophenyl)-3-(3-(trifluoromethoxy)benzyl)indolin-1-yl)-1,1,1-trifluoropropan-2-ol]
- IC50 (recombinant CETP): 466 nM
- IC50 [1]: 1380 nM

Structure (SMILES): O[C@H](CN1CC(Cc2cccc(OC(F)(F)F)c2)(c2cccc(N3CCOCC3)c2)c2ccccc21)C(F)(F)F (mixture of isomers) [Example 31, (2R)-1,1,1-trifluoro-3-(3-(3-morpholinophenyl)-3-(3-(trifluoromethoxy)benzyl)indolin-1-yl)propan-2-ol]
- IC50 (recombinant CETP): 146 nM
- IC50 [1]: 643 nM

Structure (SMILES): C[C@@H]1CN(c2cccc(C3(Cc4cccc(OC(F)(F)F)c4)CN(C[C@@H](O)C(F)(F)F)c4ccccc43)c2)CCO1 (stereo partly shown) [Example 43]
- IC50 (recombinant CETP): 97 nM
- IC50 [1]: 932 nM

Structure (SMILES): O[C@H](CN1CC(Cc2cccc(N3CCCC(F)(F)C3)c2)(c2cccc(OC(F)(F)F)c2)c2ccccc21)C(F)(F)F (stereo partly shown) [Example 59]
- IC50 (recombinant CETP): 198 nM
- IC50 [1]: 1420 nM

Structure (SMILES): O[C@H](CN1CC(Cc2cccc(OC(F)(F)F)c2)(c2cccc(N3CCC(F)(F)C3)c2)c2ccccc21)C(F)(F)F (stereo partly shown) [Example 35]
- IC50 (recombinant CETP): 98 nM
- IC50 [1]: 533 nM

Structure (SMILES): O[C@H](CN1CC(Cc2cccc(OC(F)(F)F)c2)(c2ccnc(N3CCOCC3)c2)c2ccccc21)C(F)(F)F (stereo partly shown) [Example 24]
- IC50 (recombinant CETP): 244 nM
- IC50 [1]: 3120 nM
